Experimental data: publication PMC6474902, “Examination of novel 4-aminoquinoline derivatives designed and synthesized by a hybrid pharmacophore approach to enhance their anticancer activities” (Scientific Reports, 2019)
“Also recorded” adds a separate entry of the source. Read-outs that look alike come from different tables or passages of the source.

Tests used:
[1] = system: MCF7; experiment: SRB antiproliferative/antigrowth assay; type: cell-based, human; conditions: SRB, 48 h post-treatment, mean of triplicates of at least two experiments, read-out: GI50 MCF7
Protocol: (§1) The antigrowth effects of 4-piperazinylquinoline sulfonyl analogs on human breast tumor cells was initially evaluated using MDA-MB468 (a PTEN defective, EGFR positive breast adenocarcioma), MDA-MB231 (p53 and pRB mutated, triple-negative breast carcinoma), and MCF7 (p53+/−, invasive ductal breast carcinoma) cell lines. In addition, the cytotoxicity of all the compounds was also evaluated with the 184B5 and MCF10A non-cancer immortalized breast epithelial cell lines, to determine if these newly synthesized compounds have differential cytotoxic effects on cancer and non-cancer cells. The panel of three breast cancer cell lines with different genetic back ground and the well-studied two non-cancer immortalized breast cell lines would provide insights into the efficacy and toxicity of the test compounds in the different genetic background and at different stages of tumor development. The dose response of each cell line was established by determining the number of viable cells after 48 h of continuous drug treatment against seven different concentrations (100 µM to 0.0064 µM) of each compound. The reading of sulphorodamine B (SRB) staining is known to accurately reflect the level of total cellular macromolecules/cell growth/proliferation[6],[23]. […] The data for CQ and cisplatin were included as references. […] The differences in the GI50 values may be attributable to such factors as the nature of the sulfonyl group and the halogen substitution on the 7th position of the 4-piperazinylquinoline ring system, and the genetic and biochemical background of the cell lines.
(§2) Antiproliferative/antigrowth effects were determined by a SRB-based protocol[6],[23]. For a typical screening experiment, 5,000–10,000 cells were inoculated into 100 µL medium per well of a 96-well microtiter plate as described previously. Briefly, after the inoculation, the microtiter plate was incubated at 37 °C, 5% CO2, 95% air and 100% relative humidity for 24 h, prior to addition of experimental drugs. Some of the sample wells were fixed with 25 µL of 50% tricholoroacetic acid (TCA) as a control of the cell population for each cell line at the time of drug addition (Tz). An aliquot of the frozen stock was thawed and diluted to a desired final maximum test-concentration with complete medium. Two to ten-fold serial dilutions were made to provide a total of seven drug concentrations (and a control [C]). Following addition of drugs, the culture plate was incubated for additional 48 h. Cells were fixed in situ by slowly adding 25 µL of ice-cold 50% (w/v) TCA (final concentration, 10% TCA), and were then incubated for 60 min at 4 °C. The supernatant was discarded, and the plate was washed five times with tap water, followed by air-dry. 50 µL of SRB solution at 0.4% (w/v) in 1% acetic acid was added to each well, and the plate was incubated for >30 min at room temperature. Unbound SRB was removed by five washes with tap water, followed by air-drying. The cells “stained” with SRB were solubilized with 10 mM trizma base, and the absorbance was read on an automated plate reader at a wavelength of 515–564 nm. The relative growth rate (%) was calculated for each of the compound concentrations according to the following formula: (Ti−Tz)/(C−Tz)×100
(§3) In the formula, time zero (Tz), control growth (C), and OD for different concentration of tested compounds (Ti). The GI50 for each compound was obtained from a non-linear Sigmoidal dose-response (variable slope) curve which is fitted by GraphPad Prism v.4.03 software. Values were calculated for each of these parameters if the level of activity was reached. However, if the effect was not reached or was exceeded, the value for that parameter was expressed as greater or less than the maximum or minimum concentration tested.

[2] = system: MDA-MB231; experiment: SRB antiproliferative/antigrowth assay; type: cell-based, human; conditions: for GI50: SRB, 48 h post-treatment, mean of triplicates of at least two experiments, read-out: GI50 MB231
Protocol: as §1, §2, §3

[3] = system: MDA-MB468; experiment: SRB antiproliferative/antigrowth assay; type: cell-based, human; conditions: SRB, 48 h post-treatment, mean of triplicates of at least two experiments, read-out: GI50 MB468
Protocol: as §1, §2, §3

[4] = system: 184B5; experiment: SRB antiproliferative/antigrowth assay, non-cancer cells; type: cell-based, human; conditions: read-out: GI50 184B5
Protocol: as §1, §2, §3

[5] = system: MCF10A; experiment: as above; type: cell-based, human; conditions: SRB, 48 h post-treatment, non-cancer breast epithelial cells, read-out: GI50 MCF10A
Protocol: as §1, §2, §3

[6] = system: MDA-MB231, MDA-MB468, MCF7 breast cancer cells; 184B5 and MCF10A non-cancer breast cells; experiment: SRB assay, panel of breast cancer and non-cancer breast cell lines; type: cell-based, human; conditions: judged from GI50 values of Table 1
Protocol: as §1, §2, §3

[7] = Homo sapiens, 184B5, 48 h, SRB, 48 h post-treatment, non-cancer breast epithelial cells

Row | GI50 ([1]; Homo sapiens, MCF7, 48 h) [µM] | GI50 ([2]; Homo sapiens, MDA-MB-231, 48 h) [µM] | GI50 ([3]; Homo sapiens, MDA-MB-468, 48 h) [µM] | melting point [°C] | Compound | preferential antigrowth effect on cancer versus non-cancer cells (in words) [6] | GI50 [4, 7] [µM] | GI50 ([5]; Homo sapiens, MCF-10A, 48 h) [µM] | further results
1 | – | – | – | – | N.N.[Cl][Pt][Cl] [Cisplatin, reference compound] | similar | – | – | GI50 [1]: 25.8 ± 0.4 µM; GI50 [2]: 23.7 ± 0.2 µM; GI50 [3]: 31 ± 0.5 µM; GI50 ([4]; SRB, 48 h post-treatment, non-cancer breast epithelial cells): 25.5 ± 0.4 µM; GI50 [5]: 51.5 ± 0.9 µM
2 | 16.1 ± 0.6 | 34.1 ± 0.7 | 28.8 ± 0.7 | 190 to 192 | Cc1ccc(S(=O)(=O)N2CCN(c3ccnc4cc(Cl)ccc34)CC2)cc1 [Compound 8, 7-Chloro-4-(4-tosylpiperazin-1-yl)quinoline] | effective and preferential antigrowth effects on cancer cells; also recorded: stronger antigrowth/antiproliferation activity against cancer cells than non-cancer cells | 47.5 ± 0.9 | 44.4 ± 0.7 | –
3 | 22.3 ± 0.2 | 35 ± 0.8 | 27.5 ± 0.7 | 145 to 147 | CN(C)c1cccc2c(S(=O)(=O)N3CCN(c4ccnc5cc(Cl)ccc45)CC3)cccc12 [Compound 14, 5-(4-(7-Chloroquinolin-4-yl)piperazin-1-ylsulfonyl)-N,N-dimethylnaphthalen-1-amine] | effective and preferential antigrowth effects on cancer cells; also recorded: stronger antigrowth/antiproliferation activity against cancer cells than non-cancer cells | 28.3 ± 0.3 | 32.2 ± 0.3 | –
4 | 25.6 ± 0.3 | 44.4 ± 0.9 | 28.6 ± 0.7 | 116 to 118 | CS(=O)(=O)N1CCN(c2ccnc3cc(C(F)(F)F)ccc23)CC1 [Compound 16, 4-(4-Methanesulfonyl-piperazin-1-yl)-7-trifluoromethyl-quinoline] | effective and preferential antigrowth effects on cancer cells; also recorded: stronger antigrowth/antiproliferation activity against cancer cells than non-cancer cells | 93.9 ± 0.9 | 75.8 ± 0.8 | –
5 | 9.4 ± 0.3 | 32.2 ± 0.6 | 18.6 ± 0.6 | 199 to 201 | O=[N+]([O-])c1cccc(S(=O)(=O)N2CCN(c3ccnc4cc(C(F)(F)F)ccc34)CC2)c1 [Compound 21, 4-[4-(3-Nitro-benzenesulfonyl)-piperazin-1-yl]-7-trifluoromethyl-quinoline] | effective and preferential antigrowth effects on cancer cells; also recorded: stronger antigrowth/antiproliferation activity against cancer cells than non-cancer cells | 17.7 ± 0.2 | 15.4 ± 0.1 | –
6 | 5.2 ± 0.5 | 6.2 ± 0.5 | 5.8 ± 0.4 | – | Cc1ccc(S(=O)(=O)NCCCNc2ccnc3cc(Cl)ccc23)cc1 [Compound 26, N-[3-(7-Chloro-quinolin-4-ylamino)-propyl]-4-methyl-benzenesulfonamide] | effective and preferential antigrowth effects on cancer cells; also recorded: stronger antigrowth/antiproliferation activity against cancer cells than non-cancer cells | 9.6 ± 0.5 | 12.2 ± 0.6 | –
7 | 25.3 ± 1.3 | 55.9 ± 1.6 | 30.4 ± 1 | 171 to 173 | CS(=O)(=O)NCCCNc1ccnc2cc(C(F)(F)F)ccc12 [Compound 34, N-[3-(7-Trifluoromethyl-quinolin-4-ylamino)-propyl]-methanesulfonamide] | – | 59.5 ± 1.6 | 85 ± 1.2 | –
8 | 3.6 ± 0.3 | 6 ± 0.4 | 4.2 ± 0.2 | 110 to 112 | O=S(=O)(NCCCNc1ccnc2cc(C(F)(F)F)ccc12)c1ccc(-c2ccccc2)cc1 [Compound 36, Biphenyl-4-sulfonic acid [3-(7-trifluoromethyl-quinolin-4-ylamino)-propyl]-amide] | – | 2.8 ± 0.1 | 2.2 ± 0.3 | –
9 | 5.4 ± 0.3 | 12.8 ± 0.9 | 10.3 ± 0.6 | 70 to 72 | O=S(=O)(NCCCNc1ccnc2cc(C(F)(F)F)ccc12)c1ccc(Cl)cc1 [Compound 37, 4-Chloro-N-[3-(7-trifluoromethyl-quinolin-4-ylamino)-propyl]-benzenesulfonamide] | – | 7.6 ± 0.4 | 17.4 ± 0.1 | increase in potency on MDA-MB231 in comparison to methyl substituted compounds (25 and 34) [2]: 3.5–4.4 fold
10 | 5.2 ± 0.3 | 7 ± 0.6 | 3.9 ± 0.1 | 117 to 119 | O=S(=O)(NCCCNc1ccnc2cc(C(F)(F)F)ccc12)c1ccc(Cl)cc1Cl [Compound 38, 2,4-Dichloro-N-[3-(7-trifluoromethyl-quinolin-4-ylamino)-propyl]-benzenesulfonamide] | – | 3.2 ± 0.1 | 5.3 ± 0.3 | –
11 | 8.3 ± 0.5 | 15.7 ± 1 | 9.1 ± 0.6 | 98 to 100 | O=[N+]([O-])c1cccc(S(=O)(=O)NCCCNc2ccnc3cc(C(F)(F)F)ccc23)c1 [Compound 39, 3-Nitro-N-[3-(7-trifluoromethyl-quinolin-4-ylamino)-propyl]-benzenesulfonamide] | – | 8 ± 0.8 | 10.6 ± 0.9 | –
12 | 7.7 ± 0.6 | 14.2 ± 1 | 9.7 ± 0.3 | 199 to 201 | CN(C)c1cccc2c(S(=O)(=O)NCCCNc3ccnc4cc(C(F)(F)F)ccc34)cccc12 [Compound 41, 5-Dimethylamino-naphthalene-1-sulfonic acid [3-(7-trifluoromethyl-quinolin-4-ylamino)-propyl]-amide] | – | 3.7 ± 0.2 | 6.5 ± 0.3 | –

Row | Compound | GI50 ([1]; Homo sapiens, MCF7, 48 h) [µM] | GI50 ([2]; Homo sapiens, MDA-MB-231, 48 h) [µM] | GI50 ([3]; Homo sapiens, MDA-MB-468, 48 h) [µM] | melting point [°C] | preferential antigrowth effect on cancer versus non-cancer cells (in words) [6] | GI50 [4, 7] [µM] | GI50 ([5]; Homo sapiens, MCF-10A, 48 h) [µM] | further results
13 | O=[N+]([O-])c1ccc(S(=O)(=O)NCCCNc2ccnc3cc(Cl)ccc23)c([N+](=O)[O-])c1 [Compound 31, N-[3-(7-Chloro-quinolin-4-ylamino)-propyl]-2,4-dinitro-benzenesulfonamide] | – | – | – | 238 to 240 | – | – | – | GI50 ([1]; Homo sapiens, MCF7): 6.2 ± 0.3 µM; increase in antigrowth activity against MDA-MB231 compared to mono nitro substituted compounds (30 and 39) [2]: 1.7–2.3 fold; GI50 ([2]; Homo sapiens, MDA-MB-231): 8.9 ± 0.7 µM; GI50 ([3]; Homo sapiens, MDA-MB-468): 7.4 ± 0.2 µM; GI50 ([4]; Homo sapiens, 184B5, 48 h): 9.1 ± 0.6 µM; GI50 ([5]; Homo sapiens, MCF-10A): 19.8 ± 0.9 µM
